Reference: US12234299B2, “Peptides for inducing bacteriocin synthesis and methods to identify and/or select and/or optimize the same” (SYNGULON S.A., priority 2018, dated 2025)

Experiments:
[1] = tested on: sptA promoter (PsptA), ScuR/SarF system; assay: Luciferase (luxAB) promoter activity of PsptA with exogenous synthetic peptides; type: cell-based, Streptococcus salivarius HSISS4; settings: for Maximal activity of PsptA exposed to sBI7 mutant peptides, low concentration: 0.001 μM (1 nM) peptide, FIG. 3C; for Maximal activity of PsptA exposed to sBI7 mutant peptides, high concentration: 1 μM peptide, FIG. 3E
Experimental: (§1) Overnight precultures were diluted at a final OD600 of 0.05. A volume of 300 μl of culture samples was incubated in the wells of a sterile covered white microplate with a transparent bottom (Greiner, Alphen a/d Rijn, The Netherlands) for 75 min at 37° C. and then supplemented with synthetic peptides (1 μM, except if otherwise stated) or DMSO, and xylose where required. Growth (OD600) and luciferase (Lux) activity (expressed in relative light units) was monitored at 10 min intervals during 24 h in a multi-wells plate reader (Hidex Sense, Hidex, Turku, Finland) as previously described (Fontaine et al., 2013).

ScuR = assay: Mobility shift assay (EMSA) of promoter probes with purified ScuR and synthetic peptide; type: binding, Streptococcus salivarius; settings: ScuR 4 μM; peptide 2:2 dilutions from 20 μM; FIG. 10B
Experimental: All double-stranded DNA fragments (30 or 40 bp) were obtained from annealing of single-stranded Cy3-labelled (at 5′ end) and unlabeled oligonucleotides. Typically, a gel shift reaction (20 μl) was performed in a binding buffer (20 mM Tris-HCl pH 8.0, 150 mM NaCl, 1 mM EDTA, 1 mM DTT, 10% glycerol, 1 mg ml-1 BSA) and contained 150 ng labelled probe and […] StrepTag proteins. When necessary, […] of ComS peptides (unless otherwise stated) are added. The reaction is incubated at 37° C. for 10 min prior to loading of the samples on a native TBE 5% gel. The gel is next subjected to 80 V for approximately 1 h in TBE buffer. DNA complexes were detected by fluorescence on the Ettan DIGE Imager with bandpass excitation filters (nm): 540/25 (Cy3) or 635/30 (Cy5) and bandpass emission filters: 595/25 (Cy3) or 680/30 (Cy5) (GE Healthcare, Waukesha, WI).
The PCR-amplified scuR-StrepTag and gene sarF-StrepTag were cloned into the pBAD-comR-ST vector (see supplemental information). The ComR-StrepTag, ScuR-StrepTag and SarF-StrepTag recombinant proteins were overproduced in E. coli and purified as previously described (Fontaine et al., 2013) in standard native conditions on Strep-Tactin agarose beads (IBA).

sptA promoter (PsptA) = assay: PsptA-luxAB activity with xylose-induced intracellularly expressed peptides; type: cell-based, Streptococcus salivarius
Description: (§2) To generate the two DNA libraries encoding randomized sequence of small peptides, we performed overlapping PCRs to graft fragments encompassing the follow features: (1) a 5′ recombination arm (for the ectopic tRNA^ser locus); (2) the xylR gene that codes for the xylose responsive regulator; (3) either Pxyl1 (library I) or Pxyl2 (library II) translationally-fused to a 12 codon long gene, for which the last 7 are randomized; (4) the spec gene; (5) a 3′ recombination arm (for the ectopic tRNA^ser locus). To obtain the randomized DNA stretch, we used a 78 nucleotide long primer degenerated on 21 contiguous positions. Next, we transformed these two libraries in strains containing the sptA promoter translationally-fused to the cat gene (chloramphenicol resistance) in which the associated spec gene was excised by the previously described cre-lox method. The initial background of these strains were either a comR-overexpressing (Pxyl1-comR) or a salivaricin-deprived (Δslv5) strain. We plated transformed cells on solid medium supplemented with xylose (either 0.1 or 1%), chloramphenicol ([…]) and spectinomycin ([…]) and grew overnight. We restreaked single colonies on fresh chloramphenicol and spectinomycin solid medium supplemented or not with xylose.
as §1

[2] = tested on: sptA promoter (PsptA) fused to cat, ScuR/SarF; assay: Randomized peptide screen (PsptA-cat, chloramphenicol resistance on xylose); type: cell-based, Streptococcus salivarius; settings: xylose 0.1 or 1%; PsptA-cat reporter
Description: as §2

Candida species = settings: Shekh and Roy (2012); cited from earlier work
[3] = tested on: fungal microbial organism; settings: literature; cited from earlier work
[4] = tested on: bacteriocin gene promoters (salivaricin promoters); assay: Luciferase (luxAB) activity of bacteriocin gene (salivaricin) promoters; type: cell-based, Streptococcus salivarius HSISS4; settings: 1 μM; FIG. 7
Experimental: as §1

[5] = tested on: pathogenic Gram-positive and Gram-negative bacteria; settings: Acuna et al. (2012); cited from earlier work

LAFWDSLG [Leu-Ala-Phe-Trp-Asp-Ser-Leu-Gly]
induction of the sptA promoter in vivo ([1]; 1 μM, FIG. 10A): able to induce the sptA promoter in vivo | ScuR binding to PsptA probe (ScuR): more intense

LAFWDSLGLLL [LAFWDSLG with a triple leucine extension at the C-terminus (precursor peptide)]
induction of the sptA promoter in vivo ([1]; 1 μM, FIG. 10A): able to induce the sptA promoter in vivo | PsptA induction of the longer peptide relative to the shorter one ([1]; 1 μM, induction magnitude comparable to sBI7, FIG. 10A): much more active at 1 μM concentration than the shorter one | ScuR binding to PsptA probe (ScuR): requires extreme concentration

MIAILPFWLILG [BI7, genome-encoded screen peptide]
xylose-driven PsptA activity in comR or sarF deletion backgrounds (sptA promoter (PsptA); 0.1% xylose, FIG. 2D): neither comR nor sarF deletion has a dramatic effect | xylose-driven PsptA activity in scuR deletion background (sptA promoter (PsptA); 0.1% xylose, FIG. 2D): annihilates both xylose induction and basal leaky expression

MIAILRPH [BM1, irrelevant genome-encoded peptide, negative control clone, reference compound]
growth on chloramphenicol with vs without xylose [2]: xylose-independent growth | potentiation of PsptA-luxAB promoter activity by xylose addition (sptA promoter (PsptA); xylose 0.1% or 1% vs mock, FIG. 2B): no effect

WLPPAGLLGRCGRWFRPWLLWLQ SGAQY KWLGNLFGLGPK (WLPPAGLLGRCGRWFRPWLLWLQSGAQYKWLGNLFGLGPK; Enterococcus faecalis peptide)
neutralizing activity against Candida species (Candida species): neutralizing activity against Candida species

botrycidin AJ1316
antifungal activities [3]: antifungal activities

sBI7^G→A: sBI7 variant, C-terminal glycine substituted by alanine (LPFWLILA)
Maximal activity of PsptA exposed to sBI7 mutant peptides, low concentration [1]: decreases the PsptA response | Maximal activity of PsptA exposed to sBI7 mutant peptides, high concentration [1]: activate Pcat at a similar range than the WT sBI7 peptide | Maximal activity of salivaricin (bacteriocin gene) promoters exposed to mutant peptides [4]: low to high activation disability

sBI7^W→A: sBI7 variant, ultra-conserved tryptophan substituted by alanine (LPFALILG)
Maximal activity of PsptA exposed to sBI7 mutant peptides, low concentration [1]: neither alanine (sBI7^W→A) nor phenylalanine (sBI7^W→F) variants sustains luciferase transcription | Maximal activity of salivaricin (bacteriocin gene) promoters exposed to mutant peptides [4]: total inefficacy

sBI7^W→F: sBI7 variant, ultra-conserved tryptophan substituted by phenylalanine (LPFFLILG)
Maximal activity of PsptA exposed to sBI7 mutant peptides, low concentration [1]: neither alanine (sBI7^W→A) nor phenylalanine (sBI7^W→F) variants sustains luciferase transcription | Maximal activity of PsptA exposed to sBI7 mutant peptides, high concentration [1]: activate Pcat at a similar range than the WT sBI7 peptide | Maximal activity of salivaricin (bacteriocin gene) promoters exposed to mutant peptides [4]: low to high activation disability

B1: Ent35-MccV: hybrid bacteriocin: N-terminal glycine, Enterocin CRL35, a linker comprising three glycines, and a C-terminal Microcin V (protein)
chain: GKYYGNGVSCNKKGCSVDWGRAIGIIGNNSAANLATGGAAGWKSGGGASGRDIAMAIGTLSGQFVAGGIGAAAGGVAGGAIYDYASTHKPNPAMSPSGLGGTIKQKPEGIPSEAWNYAAGRLCNWSPNNLSDVCL
modifications: Hybrid bacteriocin Ent35-MccV
notes: hybrid bacteriocin: N-terminal glycine, Enterocin CRL35, a linker comprising three glycines, and a C-terminal Microcin V
antimicrobial activity [5]: displays antimicrobial activity against pathogenic Gram-positive and Gram-negative bacteria
